Molecules are shown by their SMILES. Entries after “also recorded” stand apart in the source; their conditions may differ. Read-outs that look alike come from different tables or passages of the source.

Here are results for three compounds from US20140128352A1, “COMPOUNDS AND METHODS FOR MODULATING MITOCHONDRIAL METABOLISM AND REACTIVE OXYGEN SPECIES PRODUCTION” (Buck Institute for Research on Aging, priority 2012, published 2014).

Test [1] relates to complex I. Nature of the test: Rate of NAD(P)H reduction via complex I versus observed ROS production. The class given is biochemical, rat.
Method: To compare candidate IQ ROS inhibitors with mitochondrial inhibitors known to disrupt complex I activity (e.g. rotenone) or oxidize the electron transport chain (e.g. the uncoupler FCCP), the rate of NAD(P)H reduction via complex I was measured when isolated mitochondria were provided with saturating concentrations of the complex II substrate succinate (5 mM) and subsaturating levels of glutamate (1 mM) to facilitate full activation of complex II by oxaloacetate removal. […] These conditions allow electron and proton fluxes through complex Ito reverse and be directed predominantly toward the matrix. Addition of succinate causes a rapid increase in the reduction state of the matrix NAD(P)H pool that can be monitored as described above. The rate of NAD(P)H reduction is therefore a measure of electron flux through complex I for which direct comparisons can be made under identical conditions to effects on rates of ROS production.
The target in test [2] is T1, glycerol-3-phosphate dehydrogenase (GPDH) (Rattus norvegicus, UniProt P35571).
T1 construct: The activity of GPDH in intact mitochondria (0.3 mg/mL) was measured; from tissue; host or cells: rat skeletal muscle mitochondria (Wistar, Harlan Laboratories)
T1 sequence (P35571 43-727): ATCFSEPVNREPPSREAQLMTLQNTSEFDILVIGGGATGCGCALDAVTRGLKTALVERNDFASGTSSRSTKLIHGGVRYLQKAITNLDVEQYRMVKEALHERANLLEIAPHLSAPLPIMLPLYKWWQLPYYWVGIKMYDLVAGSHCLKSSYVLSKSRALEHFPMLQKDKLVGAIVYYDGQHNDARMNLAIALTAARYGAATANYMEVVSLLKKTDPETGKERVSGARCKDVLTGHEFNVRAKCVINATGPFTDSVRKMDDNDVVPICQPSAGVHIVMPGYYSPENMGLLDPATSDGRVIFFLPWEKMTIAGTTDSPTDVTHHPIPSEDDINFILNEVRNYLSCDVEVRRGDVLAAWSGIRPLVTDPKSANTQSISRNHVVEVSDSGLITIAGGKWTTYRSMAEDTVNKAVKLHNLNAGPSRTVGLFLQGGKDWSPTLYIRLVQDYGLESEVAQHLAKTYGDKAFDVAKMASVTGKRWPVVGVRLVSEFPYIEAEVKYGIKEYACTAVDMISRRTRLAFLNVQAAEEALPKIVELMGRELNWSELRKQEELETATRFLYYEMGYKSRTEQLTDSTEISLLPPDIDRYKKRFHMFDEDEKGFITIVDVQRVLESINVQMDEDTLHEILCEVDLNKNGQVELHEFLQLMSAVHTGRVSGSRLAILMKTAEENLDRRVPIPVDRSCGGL
Nature of the test: High-throughput screen: ROS production from glycerol-3-phosphate dehydrogenase (GPDH). The format is biochemical. On the set-up: inhibition: dose or concentration left out as unconfirmed.
Method: (§1) Skeletal muscle mitochondria were isolated from 5-8 week old female Wistar rats (Harlan Laboratories). Minced muscle was homogenized in buffer containing bacterial protease Type VIII prior to differential centrifugation to separate mitochondria from other tissue components. Unless otherwise stated, freshly isolated muscle mitochondria were assayed in buffer containing 120 mM KCl, 5 mM HEPES, 1 mM EGTA, 0.3% (w/v) bovine serum albumin. Where indicated, CaCl2 was added to yield a final free concentration of 250 nM calcium at pH 7.0 at 37° C.
(§2) Compounds (10 mM in DMSO) were randomly selected from a library of 24,000 compounds obtained from ChemBridge and curated by the lab of Robert Hughes at the Buck Institute. Master screening plates were prepared using a Biomek FX liquid handling workstation (Beckman) to transfer 1 μL of each compound into individual wells on 96-well storage plates (80 compounds per plate). Master plates were sealed with foil and stored at −80° C. Just prior to use, plates were brought to room temperature and diluted 300-fold with standard buffer (13.3X=33.3 μM). To monitor the performance of each assay throughout screening and to provide intra-plate normalization reference points, DMSO negative controls and known mitochondrial inhibitor positive controls were included on each Master compound plate.
(§3) Total amounts of superoxide and H2O2 production were determined fluorometrically as H2O2, without distinguishing between them, in the presence of exogenous superoxide dismutase (25 units/mL final), horseradish peroxidase (1 unit/mL final), and Amplex UltraRed (25 μM final) as described (Affourtit, C. et al. (2012) Measurement of proton leak and electron leak in isolated mitochondria. Methods Mol. Biol. 810: 165-82). Just prior to use, a bulk 3.3X solution was made in standard buffer and distributed into a 2 mL deep well 96-well transfer plate.
To assess the effects of a compound on ROS production from glycerol-3-phosphate dehydrogenase (GPDH), Start Solution containing 25 mM glycerol phosphate, 4 μM rotenone, 2.5 μM antimycin A, 1 mM malonate, 2 μM myxothiazol was distributed into standard 96-well transfer plates. A Biomek FX workstation was programmed to dispense solutions into black 96-well assay plates. Solutions were dispensed to all assay plates in the following order: ROS Detection solution described in Example 3, Mitochondria solution described in Example 1 to a final concentration of 0.2 mg/ml, and Compound dilutions described in Example 2. Duplicate assay plates were made and each was initiated by the addition of 3.3X Start solution containing 25 mM glycerol phosphate, 4 μM rotenone, 2.5 μM antimycin A, 1 mM malonate, 2 μM myxothiazol. Plates were incubated in the dark at room temperature for 30-40 minutes before acquiring endpoint fluorescence using a Victor 3V plate reader (Perkin Elmer) equipped with 550/590 nm excitation/emission filters.
The fluorescence values in each well were scaled as the percent change from the intra-plate DMSO controls. […] Following initial scaling, intra-plate normalized values were subjected to Tukey's two-way median polish to remove row and column dependent positional effects (Malo et al., 2006).

The subject of test [3] is ubiquinone binding site of complex I (IQ). Nature of the test: High-throughput screen: ROS production from ubiquinone binding site of complex I (IQ), isolated skeletal muscle mitochondria. The note with it: percent change in ROS from DMSO controls. The class given is biochemical, rat.
In test [4] the target is T2, GPDH (Rattus norvegicus, UniProt P35571).
T2 construct: from tissue; host or cells: rat skeletal muscle mitochondria (Wistar, Harlan Laboratories)
T2 sequence (P35571 43-727): T1 sequence (P35571 43-727)
Nature of the test: Retest of GPDH ROS production (expanded microplate panel / cuvette). The class given is biochemical. The note with it: microplate or cuvette. How it is done: Compounds identified as site-selective hits as well as structural analogs were re-sourced from ChemBridge and dissolved in DMSO as 80 mM stocks. Master Titration Plates were prepared manually by serially diluting 80 mM compound stocks between 0.08 and 80 mM on 96-well microplates. Four compounds were titrated in duplicate on each plate. Additional DMSO controls were interspersed across these plates to serve as local normalization controls during analysis since two-way median polishing was not appropriate. Just prior to use, compounds were diluted 100-fold with standard buffer (10X). The same known inhibitor positive controls were included on each plate as during high-throughput screening.
The five core ROS assays and single ΔΨm assay were carried out as in the initial high-throughput screen. In addition, several assays were included to help validate the specificity of the compounds for a given site of production. All compounds were titrated against separate assays targeting IQ ROS and IIIQo ROS using subsaturating (0.5 mM final) succinate. […] Specifically, ΔΨm was monitored separately with 5 mM succinate (in the presence of 4 μM rotenone) in addition to glutamate and malate as before. The use of different substrates was designed to reveal compounds that disrupt mitochondrial function in a substrate specific manner.
Most frequently, these changes involved the use of different substrates to supply electrons from an alternative entry point in the chain. If a site of ROS production is being targeted selectively by a compound, then in many cases the supply of electrons should not influence the effectiveness of this compound at suppressing ROS production. […]
The fluorescence values in each well were scaled in relation to the intra-plate DMSO and known inhibitor controls as in the high-throughput screen except that median values for local interspersed DMSO wells (3-6 wells) were used rather than just the 8 DMSO wells in columns 1 and 12. […]

Test [5] deals with mitochondrial membrane potential (ΔΨm). The test can be described thus: Membrane potential (ΔΨm) counterscreen with TMRM. To be noted: malate, nigericin. (Counterscreens check selectivity or assay interference.)
Test [6] addresses T3, succinate dehydrogenase/complex II (SDH) (Rattus norvegicus, UniProt P21913+Q641Z9+Q6PCT8+Q920L2).
T3 construct: freshly isolated muscle mitochondria were assayed; from tissue; host or cells: rat skeletal muscle mitochondria (Wistar, Harlan Laboratories)
Nature of the test: High-throughput screen: ROS production from succinate dehydrogenase/complex II (SDH). The note with it: percent change in ROS from DMSO controls. The format is biochemical.

For test [7], the target named is T4, outer ubiquinone binding site of complex III (IIIQO) (Rattus norvegicus, UniProt P00159+P20788).
T4 construct: freshly isolated muscle mitochondria were assayed; from tissue; host or cells: rat skeletal muscle mitochondria (Wistar, Harlan Laboratories)
Nature of the test: High-throughput screen: ROS production from outer ubiquinone binding site of complex III (IIIQO). The note with it: percent change in ROS from DMSO controls. The format is biochemical.
Method: as §1, §2, §3
To assess the effects of a compound on ROS production from the outer ubiquinone binding site of complex III (IIIQO), Start Solution containing 5 mM succinate, 4 μM rotenone and 2.5 μM antimycin A was distributed into standard 96-well transfer plates. A Biomek FX workstation was programmed to dispense solutions into black 96-well assay plates. Solutions were dispensed to all assay plates in the following order: ROS Detection solution described in Example 3, Mitochondria solution described in Example 1 to a final concentration of 0.1 mg/ml, and Compound dilutions described in Example 2. Duplicate assay plates were made and each was initiated by the addition of 3.3X Start solution containing 5 mM succinate, 4 μM rotenone and 2.5 μM antimycin A. Plates were incubated in the dark at room temperature for 30-40 minutes before acquiring endpoint fluorescence using a Victor 3V plate reader (Perkin Elmer) equipped with 550/590 nm excitation/emission filters.
The fluorescence values in each well were scaled as the percent change from the intra-plate DMSO controls with the appropriate inhibitor positive controls defined as −100%. Following initial scaling, intra-plate normalized values were subjected to Tukey's two-way median polish to remove row and column dependent positional effects (Malo et al., 2006).

For test [8], the target named is T5, flavin binding site of complex I (IF) (Rattus norvegicus, UniProt Q5XIH3).
T5 construct: freshly isolated muscle mitochondria were assayed; from tissue; host or cells: rat skeletal muscle mitochondria (Wistar, Harlan Laboratories)
The test can be described thus: High-throughput screen: ROS production from flavin binding site of complex I (IF). The class given is biochemical. The note with it: percent change in ROS from DMSO controls.
Method: as §1
Master screening plates were prepared using a Biomek FX liquid handling workstation (Beckman) to transfer 1 μL of each compound into individual wells on 96-well storage plates (80 compounds per plate). […] Just prior to use, plates were brought to room temperature and diluted 300-fold with standard buffer (13.3X=33.3 μM). To monitor the performance of each assay throughout screening and to provide intra-plate normalization reference points, DMSO negative controls and known mitochondrial inhibitor positive controls were included on each Master compound plate.
as §3
To assess the effects of a compound on ROS production from the flavin binding site of complex I (IF), Start Solution containing 5 mM glutamate, 5 mM malate and 4 μM rotenone was distributed into standard 96-well transfer plates. A Biomek FX workstation was programmed to dispense solutions into black 96-well assay plates. Solutions were dispensed to all assay plates in the following order: ROS Detection solution described in Example 3, Mitochondria solution described in Example 1 to a final concentration of 0.3 mg/ml, and Compound dilutions described in Example 2. Duplicate assay plates were made and each was initiated by the addition of 3.3X Start solution containing 5 mM glutamate, 5 mM malate and 4 μM rotenone. Plates were incubated in the dark at room temperature for 30-40 minutes before acquiring endpoint fluorescence using a Victor 3V plate reader (Perkin Elmer) equipped with 550/590 nm excitation/emission filters.
The fluorescence values in each well were scaled as the percent change from the intra-plate DMSO controls with the appropriate inhibitor positive controls defined as −100%. Following initial scaling, intra-plate normalized values were subjected to Tukey's two-way median polish to remove row and column dependent positional effects (Malo, N. et al. (2006) Statistical practice in high-throughput screening data analysis. Nat. Biotechnol. 24(2): 167-75).

T3 sequence (Q920L2 35-656): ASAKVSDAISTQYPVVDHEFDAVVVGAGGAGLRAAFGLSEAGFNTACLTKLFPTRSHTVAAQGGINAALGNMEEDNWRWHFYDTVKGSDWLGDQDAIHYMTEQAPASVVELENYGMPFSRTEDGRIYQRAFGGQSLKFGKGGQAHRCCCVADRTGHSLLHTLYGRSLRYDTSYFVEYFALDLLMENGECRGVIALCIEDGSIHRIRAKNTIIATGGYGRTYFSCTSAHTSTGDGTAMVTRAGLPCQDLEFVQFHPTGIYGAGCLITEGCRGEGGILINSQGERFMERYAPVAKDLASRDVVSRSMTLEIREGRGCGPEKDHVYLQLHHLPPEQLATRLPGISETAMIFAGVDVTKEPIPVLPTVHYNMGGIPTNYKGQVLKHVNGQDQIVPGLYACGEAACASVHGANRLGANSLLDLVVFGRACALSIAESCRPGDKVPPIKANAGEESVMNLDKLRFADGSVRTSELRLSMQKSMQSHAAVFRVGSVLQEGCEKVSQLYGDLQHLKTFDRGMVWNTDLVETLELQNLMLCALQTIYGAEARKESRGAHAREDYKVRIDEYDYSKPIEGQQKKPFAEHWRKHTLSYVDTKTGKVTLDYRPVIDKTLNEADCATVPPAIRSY
T3 sequence (P21913 31-282): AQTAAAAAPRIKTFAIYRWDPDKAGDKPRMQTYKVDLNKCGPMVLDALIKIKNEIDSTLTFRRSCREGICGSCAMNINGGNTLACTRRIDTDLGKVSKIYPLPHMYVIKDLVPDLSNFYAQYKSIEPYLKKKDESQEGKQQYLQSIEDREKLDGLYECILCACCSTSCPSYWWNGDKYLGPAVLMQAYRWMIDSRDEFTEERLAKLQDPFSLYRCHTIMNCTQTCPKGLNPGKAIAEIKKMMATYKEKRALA
T3 sequence (Q641Z9 30-169 limits assumed): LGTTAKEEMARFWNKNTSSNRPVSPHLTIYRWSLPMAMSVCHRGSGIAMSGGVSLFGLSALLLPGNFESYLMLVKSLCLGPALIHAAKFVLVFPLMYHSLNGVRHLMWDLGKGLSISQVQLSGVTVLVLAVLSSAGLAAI
T3 sequence (Q6PCT8 57-159): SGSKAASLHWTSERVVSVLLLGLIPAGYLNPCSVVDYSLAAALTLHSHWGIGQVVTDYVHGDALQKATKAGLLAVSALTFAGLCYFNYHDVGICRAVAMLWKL
T5 sequence (Q5XIH3 21-464 limits assumed, one chain of several): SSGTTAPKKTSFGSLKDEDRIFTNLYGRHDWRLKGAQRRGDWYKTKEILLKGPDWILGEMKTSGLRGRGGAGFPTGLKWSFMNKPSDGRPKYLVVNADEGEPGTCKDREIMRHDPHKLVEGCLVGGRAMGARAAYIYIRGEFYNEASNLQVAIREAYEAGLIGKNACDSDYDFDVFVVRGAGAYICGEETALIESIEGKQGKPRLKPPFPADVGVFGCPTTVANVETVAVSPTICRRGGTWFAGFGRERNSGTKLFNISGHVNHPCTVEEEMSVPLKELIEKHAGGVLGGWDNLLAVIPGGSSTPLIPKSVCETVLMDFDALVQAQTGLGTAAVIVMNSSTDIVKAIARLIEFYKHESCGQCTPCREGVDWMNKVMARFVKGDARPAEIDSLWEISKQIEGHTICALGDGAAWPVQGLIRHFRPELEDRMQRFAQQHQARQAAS

Take `N#CC(C#N)=NNc1ccc(OC(F)(F)F)cc1` [FCCP]: in test [1], the “effect on rates of NADH reduction and ROS production” value was “progressively inhibited both activities; also recorded: suppresses observed ROS to near zero”.

Regarding `O=C(O)CCC(=O)Nc1ccc(-c2nc3ccccc3o2)cc1` [Compound 50], the inhibition at 2.5 µM is 12.2% in test [2] (Table 6, 25 mM glycerol phosphate, rotenone, antimycin A, malonate, myxothiazol, compounds 2.5 μM, scaled to IQ positive controls, read-out: % Reduction in ROS Production (GPDH)); -2.1% in test [6] (Table 7); -2.5% in test [7] (Table 7, read-out: IIIQO); -2.5% in test [7] (Table 9, read-out: IIIQo); 2.6% in test [8] (Table 7, read-out: IF). For the same compound, the inhibition in test [2] (Table 7, percent change in ROS from DMSO controls) worked out at 12.2%. Further, the GPDH in test [2] (Table 8, percent change in ROS from DMSO controls) was −12.2; in test [2] (Table 9, percent change in ROS from DMSO controls), −12.2. The IQ in test [3] (Table 7), in test [3] (Table 8) and in test [3] (Table 9) was 0.8 throughout. In test [4], the “effect on GPDH ROS on retesting” value is on record as “retested well as selective inhibitors of GPDH ROS”. Also, the ΔΨm in test [5] (Table 8, glutamate) is on record as 0.8; in test [5] (Table 9, glutamate) it was 0.8. For the same compound, the SDH in test [6] (Table 8) and in test [6] (Table 9) was 2.1 throughout. In test [7] (Table 8), this compound displayed an IIIQO of 2.5. Also, the IF in test [8] (Table 8) and in test [8] (Table 9) was −2.6 throughout.

For the compound `C=C(C)[C@H]1Cc2c(ccc3c2O[C@@H]2COc4cc(OC)c(OC)cc4[C@@H]2C3=O)O1` [rotenone], the “effect on rates of NADH reduction and ROS production” value was “progressively inhibited both activities” in test [1] (succinate with low glutamate, range of concentrations); “eliminates all IQ ROS production but not that from underlying IF and IIIQo” in test [1] (succinate with low glutamate, range of concentrations, listed as Rotenone).
